Test results from US9023350B2, “Synergistic pharmaceutical composition useful for inhibiting corneal and retinal neovascularization (angiogenesis), and in other organs, in a human being or animals” (Association Civil de Estudios Superiores, priority 2007, dated 2015).

Tests used:
corneal neovasculization = assay: Corneal neovasculization model (NaOH alkali burn of the cornea), neovasculization index; assay type: in vivo; conditions: rabbit, during 35 days of evaluation, single iv dose
Experimental: After anaesthetizing a Newzealender breed white rabbit of 3 kg. with a midazolam and ketamine hydrochloride with an intramuscular injection, installation of topical proparacaine was performed (Anestalcon, Alcon, Argentina) in the eye and a blepharostat was place on the right eye. During 20 seconds 7 mm diameter dicks of Whatman filter paper were soaked in a 1N NaOH solution. The paper disk was placed on the central part of the cornea with a pincer leaving it there for 2 minutes. Immediately afterwards the injured zone was washed with 15 ml saline physiological solution (CINa, 0.9%) during one minute. The same process was performed on 12 rabbits of the same color, breed and weight.
Formation of neovessels were quantified with a value of 0 to 4 to each quadrant according to the centripetal growth of the longest vessel (in 1 mm increases i.e, 0=0 mm; 1=equal or less than 1 mm; 2=more than 1 and up to 2 mm; 3=more than 2 and up to 3 mm; 4=more than 3 mm). The sum of the four quadrants provided the neovasculization index (INV) for that eye.
24 hs after the lesion was caused the first clinical examination was performed and was then continued every three days. This was carried out using an operator microscope or a surgical magnifying glass and photographs were taken with a digital camera Nikon Coolpix 5700. The INV register was performed on days 9, 15, 21 and 35 on all the animals. […]

[1] = test system: CT26 cells (colon adenocarcinoma); assay: Oncological angiogenesis model, subcutaneous CT26 tumors; assay type: in vivo, Balb/c rats; conditions: day 31; single iv dose on day 7: Suramine 20 mg/Kg, Bevacizumab 5 mg/Kg, suramab = Suramine 20 mg/Kg + Bevacizumab 5 mg/Kg
Experimental: 5×10^5 CT26 cells (colon adenocarcinoma) were inoculated subcutaneously, in the dorsal-lateral region of Balb/c rats. On the 7th day of inoculation 4 groups of animals were formed that received different treatments via iv (in the tail vein).
• a. […] Control group: (n=7) PS 100 μl under slow infusion.
The tumors were measured three times per week. The following formula was used to calculate the tumor volume: […]. The animals having tumors volumes greater or equal to 8000 mm3 were sacrificed.
Survival was considered till day 35 post tumor inoculation.

Compound | effect on corneal neovasculization (in words) (corneal neovasculization) | tumor volume compared to the control group (in words) [1]
Cc1ccc(C(=O)Nc2ccc(S(=O)(=O)O)c3cc(S(=O)(=O)O)cc(S(=O)(=O)O)c23)cc1NC(=O)c1cccc(NC(=O)Nc2cccc(C(=O)Nc3cc(C(=O)Nc4ccc(S(=O)(=O)O)c5cc(S(=O)(=O)O)cc(S(=O)(=O)O)c45)ccc3C)c2)c1 [Suramine] | inhibiting effect on neovasculization | reduction of tumor volume compared to the control group
Bevacizumab: monoclonal antibody, humanized and recombinant, that binds to VEGF-A | inhibiting effect on neovasculization | reduction of tumor volume compared to the control group
